Source: ChEMBL document CHEMBL3044744, “Antifeedant effects of marine halogenated monoterpenes” (J Agric Food Chem, 2002)
Converted amounts (≈) assume the structure as drawn. The source made the active and inactive calls. The rule behind the calls is not given here.

Experiments:
Hordeum vulgare = experiment: Phytotoxicity against Hordeum vulgare (barley) assessed as photosynthetic efficiency in leaf; assay type: organism-based; settings: in vivo
[1] = test system: Leptinotarsa decemlineata; experiment: Antifeedant activity against adult of Leptinotarsa decemlineata in […] by choice test; assay type: functional, organism-based
Rhopalosiphum padi [2] = experiment: Antifeedant activity against adult of Rhopalosiphum padi in Hordeum vulgare by choice test; assay type: functional, organism-based
Myzus persicae [3] = experiment: Antifeedant activity against adult of Myzus persicae (green peach aphid) in Hordeum vulgare by choice test; assay type: functional, organism-based
Spodoptera littoralis [4] = experiment: Antifeedant activity against L6 larvae of Spodoptera littoralis in Solanum tuberosum by choice test; assay type: functional, organism-based
Rhopalosiphum padi [5] = experiment: Antifeedant activity against adult of Rhopalosiphum padi in barley leaf assessed as salivation time at 1 ug/cm2 after 2 hr by electronic recording; assay type: functional
Rhopalosiphum padi [6] = experiment: Antifeedant activity against adult of Rhopalosiphum padi in barley leaf assessed as ingestion time at 10 ug/cm2 after 2 hr by electronic recording; assay type: functional
Rhopalosiphum padi [7] = experiment: Antifeedant activity against adult of Rhopalosiphum padi in barley leaf assessed as ingestion time at 1 ug/cm2 after 2 hr by electronic recording; assay type: functional
Rhopalosiphum padi [8] = experiment: Antifeedant activity against adult of Rhopalosiphum padi in barley leaf assessed as noningestion time at 1 ug/cm2 after 2 hr by electronic recording; assay type: functional
Rhopalosiphum padi [9] = experiment: Antifeedant activity against adult of Rhopalosiphum padi in barley leaf assessed as noningestion time at 2 ug/cm2 after 2 hr by electronic recording; assay type: functional
Rhopalosiphum padi [10] = experiment: Antifeedant activity against adult of Rhopalosiphum padi in barley leaf assessed as salivation time at 10 ug/cm2 after 2 hr by electronic recording; assay type: functional
Rhopalosiphum padi [11] = experiment: Antifeedant activity against adult of Rhopalosiphum padi in barley leaf assessed as noningestion time at 10 ug/cm2 after 2 hr by electronic recording; assay type: functional
Rhopalosiphum padi [12] = experiment: Antifeedant activity against adult of Rhopalosiphum padi in barley leaf assessed as salivation time at 2 ug/cm2 after 2 hr by electronic recording; assay type: functional
Rhopalosiphum padi [13] = experiment: Antifeedant activity against adult of Rhopalosiphum padi in barley leaf assessed as ingestion time at 2 ug/cm2 after 2 hr by electronic recording; assay type: functional
Myzus persicae [14] = experiment: Antifeedant activity against adult of Myzus persicae (green peach aphid) in Hordeum vulgare assessed as total settling at 50 ug/cm2 by choice test; assay type: functional
[15] = Cytotoxicity against Spodoptera frugiperda (fall armyworm) Sf9 cells after 48 hr by MTT assay; assay type: cell-based; settings: read-out: ED50
Rhopalosiphum padi [16] = experiment: Antifeedant activity against adult of Rhopalosiphum padi in Hordeum vulgare assessed as total settling at 50 ug/cm2 by choice test; assay type: functional
Myzus persicae [17] = experiment: Antifeedant activity against adult of Myzus persicae (green peach aphid) in Hordeum vulgare assessed as total settling at 10 ug/cm2 by choice test; assay type: functional
Rhopalosiphum padi [18] = experiment: Antifeedant activity against adult of Rhopalosiphum padi in Hordeum vulgare assessed as total settling at 10 ug/cm2 by choice test; assay type: functional
[19] = Cytotoxicity against Cricetulus griseus CHO (Chinese hamster ovary) cells after 48 hr by MTT assay; assay type: cell-based; settings: read-out: ED50
[20] = test system: Leptinotarsa decemlineata; experiment: Insecticidal activity against adult of Leptinotarsa decemlineata assessed as mortality at 10 ug/insect treated as hemolymph injection measured up to 3 days; assay type: functional
[21] = test system: Leptinotarsa decemlineata; experiment: Insecticidal activity against adult of Leptinotarsa decemlineata in […] at 2 ug/cm2 by choice test; assay type: functional, organism-based
Spodoptera littoralis [22] = experiment: Insecticidal activity against adult of Spodoptera littoralis in Solanum tuberosum at 50 ug/cm2 by choice test; assay type: functional, organism-based
Myzus persicae [23] = experiment: Insecticidal activity against adult of Myzus persicae (green peach aphid) in Hordeum vulgare at 50 ug/cm2 by choice test; assay type: functional
Rhopalosiphum padi [24] = experiment: Insecticidal activity against adult of Rhopalosiphum padi in Hordeum vulgare assessed as mortality at 2 to 10 ug/cm2 by choice test; assay type: functional

| SMILES | Activity (Hordeum vulgare) | EC50 [1] | EC50 (Rhopalosiphum padi [2]) | EC50 (Myzus persicae [3]) | Activity (Spodoptera littoralis [4]) | other results |
| --- | --- | --- | --- | --- | --- | --- |
| CC(=O)O[C@H]1C[C@H](C(C)(Br)CCl)O[C@@]1(C)/C(Cl)=C/Br (some centres undefined) | Non-toxic | 17.1 nmol/cm2 | > 100 nmol/cm2 | 50 nmol/cm2 | inactive |  |
| CC(=O)O[C@H]1C[C@@H](C(C)(Br)CCl)O[C@@]1(C)/C(Cl)=C/Br (some centres undefined) | Non-toxic |  | > 100 nmol/cm2 |  | inactive |  |
| CC1=CCC(C(C)(Cl)CCl)OC1C(Br)Br (centres undefined) | Non-toxic | 8.3 nmol/cm2 | > 100 nmol/cm2 | > 100 nmol/cm2 | inactive |  |
| CC(=O)OC(C/C=C(/C)C(Cl)C(Br)Br)C(C)(Br)CCl (centres undefined) | Non-toxic | 70 nmol/cm2 | 70 nmol/cm2 |  | inactive |  |
| CC1=C[C@](C)(/C=C/Cl)C=CC1=O | Non-toxic | 21.2 nmol/cm2 | 200 nmol/cm2 | 200 nmol/cm2 | inactive |  |
| C=C1C[C@](C)(/C=C/Cl)[C@H](Cl)C[C@H]1Cl | Non-toxic | 12.9 nmol/cm2 | 44.2 nmol/cm2 | 7.1 nmol/cm2 | inactive |  |
| C[C@]1(/C=C/Cl)C[C@@](C)(Cl)[C@H](Cl)C[C@H]1Cl | Non-toxic | 30.1 nmol/cm2 | 63 nmol/cm2 | > 100 nmol/cm2 | inactive |  |
| C[C@@]1(Cl)C[C@@](C)(/C=C/Cl)[C@H](Cl)C[C@H]1Cl | Non-toxic | 13 nmol/cm2 | 15.9 nmol/cm2 | 1 nmol/cm2 | inactive |  |
| C[C@]1(/C=C/Cl)C[C@](Cl)(CBr)[C@@H](Br)C[C@H]1Cl | Non-toxic | 39.3 nmol/cm2 | 1.2 nmol/cm2 | 1 nmol/cm2 | inactive | Time (Rhopalosiphum padi [5]): 12 min; Time (Rhopalosiphum padi [6]): 0 min; Time (Rhopalosiphum padi [7]): 0.1 min; Time (Rhopalosiphum padi [8]): 48 min; Time (Rhopalosiphum padi [9]): 60 min; Time (Rhopalosiphum padi [10]): 0 min; Time (Rhopalosiphum padi [11]): 60 min; Time (Rhopalosiphum padi [12]): 0 min; Time (Rhopalosiphum padi [13]): 0 min |
| CC(C)=CCC/C(C)=C/CC/C(C)=C/CO [FARNESOL] |  | 107.3 nmol/cm2 | 7.9 nmol/cm2 | 67.1 nmol/cm2 |  |  |
| CC(Br)(CCl)[C@H]1C[C@H](O)[C@](C)(/C(Cl)=C/Br)O1 (some centres undefined) [FUROPLOCAMIOID A] | Non-toxic | 18.9 nmol/cm2 | > 100 nmol/cm2 |  | inactive |  |
| CC(Br)(CCl)[C@@H]1C[C@H](O)[C@](C)(/C(Cl)=C/Br)O1 (some centres undefined) [FUROPLOCAMIOID C] | Non-toxic | 19.1 nmol/cm2 | 1.6 nmol/cm2 | 3.7 nmol/cm2 | inactive | Activity (Myzus persicae [14]): <50%; CC50 at 48 h [15]: 0.03 µg/mL (≈ 0.0756 µM); Activity (Rhopalosiphum padi [16]): 50%; Activity (Myzus persicae [17]): 17%; Activity (Rhopalosiphum padi [18]): 17%; CC50 at 48 h [19]: 8.09 µg/mL (≈ 20.4 µM) |
| Cl[C@H]1[C@H](Cl)[C@@H](Cl)[C@@H](Cl)[C@H](Cl)[C@H]1Cl [LINDANE] |  | 0.1 nmol/cm2 |  |  |  | mortality [20]: 100%; Activity [21]: Active; Activity (Spodoptera littoralis [22]): Active; mortality at 50 µg/cm2 (Myzus persicae [23]): 100%; CC50 at 48 h [15]: 0.001 µg/mL (≈ 0.00344 µM); mortality (Rhopalosiphum padi [24]): >50%; CC50 at 48 h [19]: > 100 µg/mL; EC50 (Spodoptera littoralis [4]): 16.8 nmol/cm2 |
| C[C@]1(/C=C/Cl)C[C@@](C)(Cl)[C@H](Cl)C[C@@H]1Cl [MERTENSENE] | Non-toxic | 150 nmol/cm2 | 16.6 nmol/cm2 | 150 nmol/cm2 | inactive | Time (Rhopalosiphum padi [5]): 40 min; Time (Rhopalosiphum padi [6]): 0 min; Time (Rhopalosiphum padi [7]): 3 min; Time (Rhopalosiphum padi [8]): 17 min; Time (Rhopalosiphum padi [9]): 15 min; Time (Rhopalosiphum padi [10]): 45 min; Time (Rhopalosiphum padi [11]): 15 min; Time (Rhopalosiphum padi [12]): 48 min; Time (Rhopalosiphum padi [13]): 1 min |
| CC1=CCC(C(C)(C)Cl)OC1C(Br)Br (centres undefined) [PANTONEURINE AB] | Non-toxic | 2.4 nmol/cm2 | > 100 nmol/cm2 | 100 nmol/cm2 | inactive |  |
| C=C(C)[C@@H]1[C@H]2OC(=O)[C@@H]1[C@]1(O)C[C@H]3O[C@]34C(=O)O[C@H]2[C@]14C [PICROTOXININ] |  | 27.5 nmol/cm2 | > 100 nmol/cm2 | > 100 nmol/cm2 |  |  |
| CC(=C/C[C@@H](O)[C@](C)(Br)CCl)/C(Cl)=C/Br [PREFUROPLOCAMIOID] | Non-toxic | > 100 nmol/cm2 | 38.9 nmol/cm2 | 25.3 nmol/cm2 | inactive |  |
| Cc1ccc(C(C)C)c(O)c1 [THYMOL] |  | 3.6 nmol/cm2 | 23.7 nmol/cm2 | 30.9 nmol/cm2 |  |  |
| C[C@]1(/C=C/Cl)C[C@](Cl)(CBr)[C@@H](Cl)C[C@H]1Cl [VIOLACENE] | Non-toxic | 140 nmol/cm2 | 2.5 nmol/cm2 | 5.1 nmol/cm2 | inactive | Time (Rhopalosiphum padi [5]): 8 min; mortality [20]: 80%; Activity (Myzus persicae [14]): <50%; Time (Rhopalosiphum padi [6]): 0 min; Time (Rhopalosiphum padi [7]): 0.2 min; CC50 at 48 h [15]: 0.023 µg/mL (≈ 0.0648 µM); Time (Rhopalosiphum padi [8]): 51.8 min; Time (Rhopalosiphum padi [9]): 59.5 min; Activity (Rhopalosiphum padi [16]): 50%; Activity (Myzus persicae [17]): 17%; Time (Rhopalosiphum padi [10]): 0 min; Time (Rhopalosiphum padi [11]): 60 min; Activity (Rhopalosiphum padi [18]): 17%; Time (Rhopalosiphum padi [12]): 0.5 min; CC50 at 48 h [19]: 29.8 µg/mL (≈ 84.1 µM); Time (Rhopalosiphum padi [13]): 0 min |
